Legend:
[1] = test system: ɣ-H2AX; assay: ɣ-H2AX in ex vivo-stimulated CD45+ lymphocytes; parameters: species or system human; settings: 350 mg QD, n = 3, highest tested dose; 3 h post first dose
Excerpt: (§1) Exploratory objectives were to assess ATR inhibition and DNA damage by measuring phosphorylation of the Ser-139 residue of the histone variant H2AX (ɣ-H2AX) post-treatment in peripheral blood mononuclear cells (cohorts A2 and C), describe the mutational landscape and its relationship to BOR in patients with selected biomarkers (cohort C) and to determine changes in allele frequencies in mutations of interest and their association with clinical benefit (molecular response; cohorts A2 and C). Further details on the definitions of LOF mutations and methods of biomarker collection are described in the Supplementary Materials.
To determine H2AX phosphorylation (ɣ-H2AX) in lymphocytes, 100 µL of whole blood was stimulated with 62 µM 4NQO (4-nitroquinoline N-oxide, Sigma, UK) for 1 hour at 37°C. In parallel, 100 µL of whole blood was incubated with 10% DMSO (dimethyl sulfoxide, Sigma, UK) as an unstimulated control sample. The samples were subsequently treated (for 10 minutes at 37°C) with BD Lyse & Fix Solution (Becton Dickinson, USA) and the whole blood cells were permeabilized with ice-cold methanol (90% final concentration) for 30 minutes on ice. […] Cells were then analyzed using a FacsCanto II (Becton Dickinson, USA) collecting 10,000 events. […]

[2] = test system: variant allele frequency of somatic alterations in ctDNA; assay: Molecular response: variant allele frequency in ctDNA; format: in vivo, human; settings: for patients with reduced variant allele frequency of the selected biomarkers: cohort C, 250 mg QD
Excerpt: as §1
Use of ATRX/DAXX mutations as proxies for ALT-positive tumors enabled use of a single next-generation sequencing test for all biomarkers in this study. Loss of function mutations were defined as loss of the gene locus, a mutation defined as pathogenic in the ClinVar database or a mutation in one of the following categories: splice_acceptor_variant, splice_donor_variant, stop_gained, frameshift_variant, stop_lost or start_lost. Archival formalin-fixed paraffin-embedded tumor biopsies and serial blood samples collected in two 10 mL Streck tubes (Streck) were analyzed for the presence of genetic alterations in tumor DNA and circulating tumor DNA (ctDNA) with the FoundationOne® CDx NGS assay (Foundation Medicine, Cambridge, Massachusetts, US, FoundationOne®CDx Technical Information. https://www.accessdata.fda.gov/cdrh_docs/pdf17/P170019S006C.pdf) and Guardant Health OMNI assay (Guardant, Palo Alto, CA, US. Technical Information https://www.accessdata.fda.gov/cdrh_docs/pdf20/P200010C.pdf), respectively.
Molecular responses were measured in ctDNA as best-on-treatment change in variant allele frequency of somatic alterations with baseline value ≥0.3%.

## Nc1nn2cc(F)cnc2c1C(=O)Nc1cncc(F)c1N1CCC(C(=O)N2CCN(C3COC3)CC2)CC1 [gartisertib, Gartisertib]
[1]
  target inhibition of ɣ-H2AX: Complete target inhibition
[2]; cohort A2, 100 mg BID
  patients with TP53-reduced variant allele frequency: 0/2
[2]; cohort A2, 150 mg QD
  patients with TP53-reduced variant allele frequency: 1/2
[2]; cohort A2, 250 mg QD (RP2D)
  patients with TP53-reduced variant allele frequency: all six
[2]; cohort A2, 350 mg QD
  patients with TP53-reduced variant allele frequency: 0/4
[2]; cohort A2, patients achieving SD as best response
  patients with TP53-reduced variant allele frequency: 4/5
[2]; cohort A2, patients with PD
  patients with TP53-reduced variant allele frequency: 2/6
[2]; SD as best response
  patients with reduced variant allele frequency of the selected biomarkers: all four
[2]; patients with PD
  patients with reduced variant allele frequency of the selected biomarkers: 2/5

Reference: paper PMC10991509, “A phase I study of ATR inhibitor gartisertib (M4344) as a single agent and in combination with carboplatin in patients with advanced solid tumours” (British Journal of Cancer, 2024)
